Experimental data taken from PubChem BioAssay (NCI).
Several values for one entry are separate records, joined by “and”; a condition that tells them apart may be missing. Equal values may be shown once.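 Cells were grown in 96-well plates and exposed to each compound for 48 hours at five concentrations; endpoints were interpolated linearly between bracketing concentrations, or set to the highest concentration if not reached. GI50: concentration for 50% inhibition of growth. Definition used: TGI = concentration required for complete inhibition of growth.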

Columns and labels:
Assay in all cases: NCI-60 cell line screen, 48 h
DU-145 prostate = test system: DU-145 prostate
HCC-2998 colon = test system: HCC-2998 colon
HOP-92 NSCLC = test system: HOP-92 NSCLC
HT29 colon = test system: HT29 colon
K-562 leukemia = test system: K-562 leukemia
M14 melanoma = test system: M14 melanoma
NCI-H460 lung = test system: NCI-H460 lung
NCI/ADR-RES ovarian = test system: NCI/ADR-RES ovarian
SF-295 CNS = test system: SF-295 CNS
UACC-62 melanoma = test system: UACC-62 melanoma

Compound | GI50 (DU-145 prostate) | TGI (DU-145 prostate) | GI50 (HCC-2998 colon) | TGI (HCC-2998 colon) | GI50 (HOP-92 NSCLC) | TGI (HOP-92 NSCLC) | GI50 (HT29 colon) | TGI (HT29 colon) | GI50 (K-562 leukemia) | TGI (K-562 leukemia) | GI50 (M14 melanoma) | TGI (M14 melanoma) | GI50 (NCI-H460 lung) | TGI (NCI-H460 lung) | GI50 (NCI/ADR-RES ovarian) | TGI (NCI/ADR-RES ovarian) | GI50 (SF-295 CNS) | TGI (SF-295 CNS) | GI50 (UACC-62 melanoma) | TGI (UACC-62 melanoma)
Fc1cccc(COc2ccc(Nc3ncncc3C#Cc3ccccc3)cc2Cl)c1 | > 25 µM | > 25 µM | > 25 µM | > 25 µM | > 18.8 µM | > 25 µM | > 25 µM | > 25 µM | > 25 µM | > 25 µM | > 25 µM | > 25 µM | > 25 µM | > 25 µM | > 25 µM | > 25 µM | > 25 µM | > 25 µM | > 25 µM | > 25 µM
NC(CO)Cc1cnc[nH]1 (configuration not stated) |  | > 100 µM | > 100 µM | > 100 µM |  | > 10 µM | > 100 µM | > 100 µM | > 100 µM | > 100 µM |  | > 100 µM | > 100 µM | > 100 µM | > 100 µM | > 100 µM | > 100 µM | > 100 µM | > 100 µM | > 100 µM
CC(C)(C)OC(=O)NC(Cc1ccccc1)C(=O)OCN1C(=O)C2C3C=CC(C2C1=O)C1C2C(=O)N(COC(=O)C(Cc4ccccc4)NC(=O)OC(C)(C)C)C(=O)C2C31 (configuration not stated) |  | > 100 µM |  | > 100 µM |  | > 100 µM |  | > 100 µM |  | > 100 µM |  | > 100 µM |  | > 100 µM |  | > 100 µM |  | > 100 µM |  | > 100 µM
Cc1nn(-c2ccc(F)cc2)c2ncnc(Nc3ccc(NC(=O)Nc4ccc(Cl)c(C(F)(F)F)c4)cc3)c12 | 3.17 µM | 11.7 µM | 2.57 µM | 10.6 µM | 1.73 µM | 4.59 µM | 2.76 µM | 9.82 µM | 1.75 µM | > 100 µM | 3.03 µM | 11.6 µM | 2.35 µM | 6.01 µM | 2.43 µM | 10.9 µM | 2.25 µM | 6.17 µM | 2.65 µM | 11.3 µM
C=CC(=O)N[C@H]1C=C(C)c2c(-c3cnc4ccccc4c3)c3c(N)ncnc3n2C1 | 8.05 µM | > 100 µM | 22.4 µM | 45 µM | 2.46 µM | 15.7 µM | 11 µM | > 100 µM | 24.8 µM | > 100 µM | 10 µM | 32.4 µM | 18.1 µM | 72.8 µM | 21.3 µM | > 87.9 µM | 22.9 µM | 68 µM | 8.05 µM | 24.8 µM
CCN1CCN(c2nc(NCCCNc3ccnc4cc(Cl)ccc34)c3ccccc3n2)CC1 | 3.05 µM | 13.2 µM | 1.87 µM | 6.09 µM | 1.78 µM | 4.64 µM | 2.6 µM | 7.22 µM | 2.23 µM | 7.14 µM | 1.86 µM | 3.63 µM | 2.14 µM | 5.1 µM | 15.2 µM | 32.3 µM | 1.66 µM | 3.37 µM | 1.87 µM | 3.58 µM
O=C(Nc1nc2ccccc2s1)OCC(F)(F)F | > 100 µM | > 100 µM | > 100 µM | > 100 µM | 41.2 µM | > 100 µM | > 100 µM | > 100 µM | > 100 µM | > 100 µM | > 100 µM | > 100 µM | > 100 µM | > 100 µM | > 100 µM | > 100 µM | > 100 µM | > 100 µM | > 100 µM | > 100 µM
Cc1ccn2c3c(c(C(=O)O)c2c1)C(=O)c1ccccc1C3=O | 1.68 µM | 3.18 µM | 4.58 µM | > 100 µM | > 100 µM | > 100 µM | 4.61 µM | > 100 µM | > 100 µM | > 100 µM | 1.11 µM | 2.64 µM | 1.36 µM | 3.07 µM | 49.8 µM | > 100 µM | 2.25 µM | 8.68 µM | 2.44 µM | 9.13 µM
CCCCCCCCCCCCCC(=S)NCCCC[C@H](NC(=O)OCc1ccccc1)C(=O)Nc1ccccc1 | 6.78 µM | > 100 µM | 5.69 µM | > 100 µM | 2.3 µM | 8.25 µM | 5.25 µM | > 100 µM | 4.21 µM | > 100 µM | 4.66 µM | > 100 µM | 4.02 µM | > 100 µM | 5.11 µM | > 100 µM | 3.4 µM | 72.1 µM | 3.51 µM | > 100 µM
C=C1CCC2C(/C=C(\C)CCC1O)OC(=O)C2C (configuration not stated) | > 100 µM | > 100 µM | > 100 µM | > 100 µM | > 100 µM | > 100 µM | > 100 µM | > 100 µM | > 100 µM | > 100 µM | > 100 µM | > 100 µM | > 100 µM | > 100 µM | > 100 µM | > 100 µM | > 100 µM | > 100 µM | > 100 µM | > 100 µM
O=c1cc(-c2cccc(F)c2)[nH]c2cc3c(cc12)OCO3 |  | 1.63 µM | 0.152 µM | 0.357 µM and 0.538 µM |  | 5.23 µM | 0.69 µM and 0.172 µM | 3.23 µM and 0.705 µM | 0.338 µM | 75 µM and > 16.4 µM | 0.286 µM | 75 µM and 23.8 µM | 0.257 µM | 4.31 µM and 22.7 µM |  | 0.0497 µM | 0.141 µM |  |  | > 64.9 µM
O=C(CCN1CCN(c2cnc3ccccc3n2)CC1)c1csc2ccccc12 | 29.5 µM | > 100 µM | > 100 µM | > 100 µM | 18.9 µM | 49.1 µM | 38.4 µM | > 100 µM | 28.6 µM | > 100 µM | 75.2 µM | > 100 µM | > 100 µM | > 100 µM | > 100 µM | > 100 µM | 36.1 µM | > 100 µM | 49.5 µM | > 100 µM
